Laboratory results: US20240308996A1, “PYRIDOPYRIDINES AND DERIVATIVES THEREOF AS SELECTIVE KINASE INHIBITORS” (University of Sharjah, priority 2023, published 2024)

Experiments:
MCF7 = assay: NCI-60 cell line panel: MCF7; format: cell-based; conditions: Breast Cancer
Experimental: (§1) It was carried out at the NCI, Bethesda, MD, USA, utilizing their standard protocol.

EKVX = assay: NCI-60 cell line panel: EKVX; format: cell-based; conditions: Homo sapiens, Non-Small Cell Lung Cancer
Experimental: as §1

[1] = tested on: hepatocellular carcinoma cell lines; assay: Screening against HCC cell lines; format: cell-based
Experimental: The target compounds were tested against hepatocellular carcinoma cell lines. Compounds 1j. 13a. 13b. 13c. […] The mean inhibition percentage values are illustrated in Table 9.
Two HCC cell lines (Hep3B and HepG2) were used for screening the antiproliferative activity of the synthesized compounds. The cell lines were obtained from the European Collection of Cell Cultures (ECACC, UK) and maintained in Dulbecco's Modified Eagle Medium (DMEM: Sigma-Aldrich) supplemented with 10% fetal bovine serum (FBS) and 1% penicillin/streptomycin and incubated at 37° C. in a 5% CO2 air atmosphere. In addition, WI-38 normal cell line was used to investigate the safety of these compounds.
MTT assay was conducted to calculate the IC50 of the compounds following the reported procedure . Briefly, the cells were seeded in 96-well tissue culture plates with a density of 5×10^4 cells/well and incubated overnight at 37° C. in a 5% CO2 air atmosphere. After that, cells were treated with the newly synthesized compounds or sorafenib as a positive control. DMSO was used as a negative control. After 48 h, the media were aspirated, and replaced with media containing 0.5 mg/mL of MTT tetrazolium dye (Sigma-Aldrich) for 2 h at 37° C. Finally, the media were removed and 200 μL of DMSO was added to solubilize the formazan crystals. Absorbance was then measured at 570 nm using Varioskan Flash multimode plate reader (Thermo Scientific, Massachusetts, USA).

COLO 205 = assay: NCI-60 cell line panel: COLO 205; format: cell-based; set-up: TGI: unit not given here; conditions: Colon Cancer
Experimental: as §1

BT-549 = assay: NCI-60 cell line panel: BT-549; format: cell-based; conditions: Breast Cancer
Experimental: as §1

MDA-MB-468 = assay: NCI-60 cell line panel: MDA-MB-468; format: cell-based; conditions: Breast Cancer
Experimental: as §1

U251 = assay: NCI-60 cell line panel: U251; format: cell-based; set-up: TGI: unit not given here
Experimental: as §1

NCI-H226 = assay: NCI-60 cell line panel: NCI-H226; format: cell-based; conditions: Non-Small Cell Lung Cancer
Experimental: as §1

OVCAR-3 = assay: NCI-60 cell line panel: OVCAR-3; format: cell-based; conditions: Ovarian Cancer
Experimental: as §1

SF-295 = assay: NCI-60 cell line panel: SF-295; format: cell-based; conditions: CNS Cancer
Experimental: as §1

OVCAR-4 = assay: NCI-60 cell line panel: OVCAR-4; format: cell-based; conditions: Homo sapiens, Ovarian Cancer
Experimental: as §1

MOLT-4 = assay: NCI-60 cell line panel: MOLT-4; format: cell-based; set-up: TGI: unit not given here; conditions: Leukemia
Experimental: as §1

MDA-MB-231/ATCC = assay: NCI-60 cell line panel: MDA-MB-231/ATCC; format: cell-based; conditions: Breast Cancer
Experimental: as §1

NCI/ADR-RES = assay: NCI-60 cell line panel: NCI/ADR-RES; format: cell-based; set-up: TGI: unit not given here; conditions: Ovarian Cancer
Experimental: as §1

SNB-75 = assay: NCI-60 cell line panel: SNB-75; format: cell-based; set-up: TGI: unit not given here; conditions: CNS Cancer
Experimental: as §1

NCI-H460 = assay: NCI-60 cell line panel: NCI-H460; format: cell-based; conditions: Non-Small Cell Lung Cancer
Experimental: as §1

OVCAR-5 = assay: NCI-60 cell line panel: OVCAR-5; format: cell-based; conditions: Ovarian Cancer
Experimental: as §1

SF-539 = assay: NCI-60 cell line panel: SF-539; format: cell-based; conditions: CNS Cancer
Experimental: as §1

T-47D = assay: NCI-60 cell line panel: T-47D; format: cell-based; conditions: Breast Cancer
Experimental: as §1

NCI-H23 = assay: NCI-60 cell line panel: NCI-H23; format: cell-based; conditions: Non-Small Cell Lung Cancer
Experimental: as §1

SNB-19 = assay: NCI-60 cell line panel: SNB-19; format: cell-based; conditions: CNS Cancer
Experimental: as §1

UO-31 = assay: NCI-60 cell line panel: UO-31; format: cell-based; set-up: TGI: unit not given here; conditions: Renal Cancer
Experimental: as §1

UACC-257 = assay: NCI-60 cell line panel: UACC-257; format: cell-based; conditions: Melanoma
Experimental: as §1

TK-10 = assay: NCI-60 cell line panel: TK-10; format: cell-based; conditions: Renal Cancer
Experimental: as §1

PC-3 = assay: NCI-60 cell line panel: PC-3; format: cell-based; conditions: Prostate Cancer
Experimental: as §1

Flt4 = Flt4 (Homo sapiens, UniProt P35916); assay: Kinase IC50, Flt4
SK-MEL-2 = assay: NCI-60 cell line panel: SK-MEL-2; format: cell-based; set-up: TGI: unit not given here; conditions: Melanoma
Experimental: as §1

MALME-3M = assay: NCI-60 cell line panel: MALME-3M; format: cell-based; conditions: Melanoma
Experimental: as §1

HOP-62 = assay: NCI-60 cell line panel: HOP-62; format: cell-based; conditions: Non-Small Cell Lung Cancer
Experimental: as §1

HCT-116 = assay: NCI-60 cell line panel: HCT-116; format: cell-based; conditions: Colon Cancer
Experimental: as §1

CAKI-1 = assay: NCI-60 cell line panel: CAKI-1; format: cell-based; set-up: TGI: unit not given here; conditions: Renal Cancer
Experimental: as §1

Chain of Flt4 (P35916 25-1363): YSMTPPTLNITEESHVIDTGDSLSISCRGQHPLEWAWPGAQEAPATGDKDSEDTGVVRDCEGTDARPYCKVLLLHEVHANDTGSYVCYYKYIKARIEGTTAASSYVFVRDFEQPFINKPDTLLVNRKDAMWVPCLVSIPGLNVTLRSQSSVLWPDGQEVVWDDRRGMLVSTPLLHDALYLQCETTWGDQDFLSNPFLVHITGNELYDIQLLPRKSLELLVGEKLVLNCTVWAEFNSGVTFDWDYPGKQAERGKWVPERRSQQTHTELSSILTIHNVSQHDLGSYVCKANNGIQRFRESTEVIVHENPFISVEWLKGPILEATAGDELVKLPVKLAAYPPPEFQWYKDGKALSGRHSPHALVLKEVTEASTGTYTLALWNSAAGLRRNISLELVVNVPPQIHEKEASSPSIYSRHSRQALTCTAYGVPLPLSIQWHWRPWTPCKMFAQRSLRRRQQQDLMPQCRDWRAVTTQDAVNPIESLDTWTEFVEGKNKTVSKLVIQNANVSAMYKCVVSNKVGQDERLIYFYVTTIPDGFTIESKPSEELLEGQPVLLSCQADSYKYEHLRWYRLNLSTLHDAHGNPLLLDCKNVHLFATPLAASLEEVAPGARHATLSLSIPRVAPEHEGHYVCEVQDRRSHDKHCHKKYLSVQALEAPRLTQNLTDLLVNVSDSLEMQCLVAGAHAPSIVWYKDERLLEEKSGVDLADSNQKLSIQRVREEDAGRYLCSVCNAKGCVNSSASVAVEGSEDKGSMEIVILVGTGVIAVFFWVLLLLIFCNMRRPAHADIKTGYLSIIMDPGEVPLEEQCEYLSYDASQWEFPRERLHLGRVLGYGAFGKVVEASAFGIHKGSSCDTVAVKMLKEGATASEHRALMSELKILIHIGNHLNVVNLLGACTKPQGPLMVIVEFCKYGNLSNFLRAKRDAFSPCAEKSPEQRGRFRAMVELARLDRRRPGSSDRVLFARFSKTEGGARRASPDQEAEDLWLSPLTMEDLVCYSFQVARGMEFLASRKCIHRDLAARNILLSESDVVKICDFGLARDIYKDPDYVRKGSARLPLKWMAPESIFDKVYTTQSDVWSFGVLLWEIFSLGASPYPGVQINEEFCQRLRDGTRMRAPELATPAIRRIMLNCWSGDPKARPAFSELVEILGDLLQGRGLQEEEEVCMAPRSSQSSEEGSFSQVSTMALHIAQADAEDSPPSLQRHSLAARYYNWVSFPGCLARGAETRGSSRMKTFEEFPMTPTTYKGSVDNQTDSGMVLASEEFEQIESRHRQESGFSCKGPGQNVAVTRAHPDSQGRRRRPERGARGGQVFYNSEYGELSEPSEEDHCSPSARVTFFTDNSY

CCN1CCN(c2ccc(NC(=O)Nc3ccc(-c4cc(C(=O)NC)c5ncccc5n4)cc3)cc2C(F)(F)F)CC1 [Compound 13c, 2-(4-(3-(4-(4-Ethylpiperazin-1-yl)-3-(trifluoromethyl)phenyl)ureido)phenyl)-N-methyl-1,5-naphthyridine-4-carboxamide]
TGI (MCF7; total growth inhibition): 610 nM | IC50 (MCF7; Homo sapiens): 290 nM | IC50 (EKVX): 2940 nM | inhibition activity against hepatocellular carcinoma cell lines compared with sorafenib [1]: higher inhibition activity than sorafenib | TGI (COLO 205; total growth inhibition): 14.20 | IC50 (COLO 205; Homo sapiens): 4150 nM | TGI (BT-549; total growth inhibition): 5670 nM | IC50 (BT-549; Homo sapiens): 2780 nM | TGI (MDA-MB-468; total growth inhibition): 5030 nM | IC50 (MDA-MB-468; Homo sapiens): 2480 nM | TGI (U251; CNS Cancer, total growth inhibition): 5.53 | IC50 (U251; Homo sapiens, U-251, CNS Cancer): 2690 nM | IC50 (NCI-H226; Homo sapiens): 2700 nM | TGI (NCI-H226; total growth inhibition): 6360 nM | IC50 (OVCAR-3; Homo sapiens): 2540 nM | TGI (OVCAR-3; total growth inhibition): 5060 nM | TGI (SF-295; total growth inhibition, unit assumed): 4470 nM | IC50 (SF-295; Homo sapiens): 2060 nM | IC50 (OVCAR-4): 2630 nM | IC50 (MOLT-4; Homo sapiens): 700 nM | TGI (MOLT-4; total growth inhibition): >18.0 | TGI (MDA-MB-231/ATCC; total growth inhibition): 5250 nM | IC50 (MDA-MB-231/ATCC; Homo sapiens): 2780 nM | IC50 (NCI/ADR-RES; Homo sapiens): 1780 nM | TGI (NCI/ADR-RES; total growth inhibition): 8.09 | TGI (SNB-75; total growth inhibition): 3.82 | IC50 (SNB-75; Homo sapiens): 840 nM | IC50 (NCI-H460; Homo sapiens): 660 nM | TGI (NCI-H460; total growth inhibition): 2930 nM | IC50 (OVCAR-5; Homo sapiens): 2820 nM | TGI (OVCAR-5; total growth inhibition): 5230 nM | TGI (SF-539; total growth inhibition): 4570 nM | IC50 (SF-539; Homo sapiens): 2300 nM | TGI (T-47D; total growth inhibition): > 18000 nM | IC50 (T-47D; Homo sapiens, T47D): 3720 nM | IC50 (NCI-H23; Homo sapiens): 2680 nM | TGI (NCI-H23; total growth inhibition): 5680 nM | TGI (SNB-19; total growth inhibition): 5480 nM | IC50 (SNB-19; Homo sapiens): 2970 nM | IC50 (UO-31; Homo sapiens): 2710 nM | TGI (UO-31; total growth inhibition): 5.14 | IC50 (UACC-257; Homo sapiens): 3050 nM | TGI (UACC-257; total growth inhibition): 5990 nM | IC50 (TK-10; Homo sapiens): 3860 nM | TGI (TK-10; total growth inhibition): 6630 nM | IC50 (PC-3; Homo sapiens): 2880 nM | TGI (PC-3; total growth inhibition): 6030 nM | IC50 (Flt4): 945.1 ± 0.5 nM | IC50 (SK-MEL-2; Homo sapiens): 9870 nM | TGI (SK-MEL-2; total growth inhibition): >18.0 | IC50 (MALME-3M; Homo sapiens): 290 nM | TGI (MALME-3M; total growth inhibition, in µM (unit assumed)): 0.53 | IC50 (HOP-62; Homo sapiens): 2790 nM | TGI (HOP-62; total growth inhibition): 5410 nM | TGI (HCT-116; total growth inhibition): 4830 nM | IC50 (HCT-116; Homo sapiens): 1120 nM | IC50 (CAKI-1; Homo sapiens): 3010 nM | TGI (CAKI-1; total growth inhibition): 5.60
